Experimental data as given in the supplement of paper PMC10627819.

What was measured:
S. aureus DSM 20231 [1] = experiment: Bliss interaction score (quartile over a dose matrix) (fitness difference); higher = more antagonism (negative = synergy)
Summary of the method: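 Values were capped at 1 after dividing OD595 at stationary-phase entry by the plate's robust no-drug mean. This ratio is fitness, and single-drug fitness was inferred from the combination data. The Bliss score is observed minus product-expected fitness, given as quartiles over technical, biological and donor/recipient replicates.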

S. aureus DSM 20231 [2] = experiment: fitness (endpoint OD595 vs no drug) (fraction); higher = more growth
Summary of the method: (§1)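 Cultures at OD595 0.01 were dispensed into 384-well plates in TSB, LB Lennox or CY and incubated at 37 °C. Every 30 min for 14 h, OD595 was read and corrected by the first reading. Fitness is the optical density at entry into stationary phase relative to the robust mean of no-drug control wells, capped at 1.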

S. aureus Newman = experiment: as above
Summary of the method: as §1

B. subtilis 168 = experiment: as above
Summary of the method: as §1
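Wherever Bliss interaction score (quartile over a dose matrix) is given: first quartile when negative (synergy) and third quartile when positive (antagonism).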

CN(C)[C@@H]1C(O)=C(C(N)=O)C(=O)[C@@]2(O)C(O)=C3C(=O)c4c(O)ccc(Cl)c4[C@@](C)(O)[C@H]3C[C@@H]12 [Clortetracycline] + CC(=O)S[C@@H]1CC2=CC(=O)CC[C@]2(C)[C@H]2CC[C@@]3(C)[C@@H](CC[C@@]34CCC(=O)O4)[C@H]12 [Spironolactone]
Conditions | Bliss interaction score
S. aureus DSM 20231 [1] | 0.196

CO/N=C(\C(=O)N[C@@H]1C(=O)N2C(C(=O)O)=C(COC(C)=O)CS[C@H]12)c1csc(N)n1 [Cefotaxime] + N[C@@H]1CONC1=O [Cycloserine D]
Conditions | fitness
B. subtilis 168, first compound 0.5 µg/mL, partner 0.125 µg/mL | 0.333
B. subtilis 168, first compound 0.5 µg/mL, partner 0.25 µg/mL | 0.28
B. subtilis 168, first compound 1 µg/mL, partner 0.125 µg/mL | 0.162
B. subtilis 168, first compound 1 µg/mL, partner 0.25 µg/mL | 0.169
B. subtilis 168, first compound 1 µg/mL, partner 0.5 µg/mL | 0.162
B. subtilis 168, first compound 2 µg/mL, partner 0.125 µg/mL | 0.16
B. subtilis 168, first compound 2 µg/mL, partner 0.25 µg/mL | 0.182
B. subtilis 168, first compound 2 µg/mL, partner 0.5 µg/mL | 0.15
S. aureus DSM 20231 [2], first compound 0.039 µg/mL, partner 0.375 µg/mL | 0.822
S. aureus DSM 20231 [2], first compound 0.039 µg/mL, partner 0.75 µg/mL | 0.822
S. aureus DSM 20231 [2], first compound 0.039 µg/mL, partner 1.5 µg/mL | 0.835
S. aureus DSM 20231 [2], first compound 0.078 µg/mL, partner 0.375 µg/mL | 0.789
S. aureus DSM 20231 [2], first compound 0.078 µg/mL, partner 0.75 µg/mL | 0.853
S. aureus DSM 20231 [2], first compound 0.078 µg/mL, partner 1.5 µg/mL | 0.748
S. aureus DSM 20231 [2], first compound 0.156 µg/mL, partner 0.375 µg/mL | 0.736
S. aureus DSM 20231 [2], first compound 0.156 µg/mL, partner 0.75 µg/mL | 0.772
S. aureus DSM 20231 [2], first compound 0.156 µg/mL, partner 1.5 µg/mL | 0.696
S. aureus DSM 20231 [2], first compound 0.312 µg/mL, partner 0.375 µg/mL | 0.652
S. aureus DSM 20231 [2], first compound 0.312 µg/mL, partner 0.75 µg/mL | 0.638
S. aureus DSM 20231 [2], first compound 0.312 µg/mL, partner 1.5 µg/mL | 0.584
S. aureus Newman, first compound 0.078 µg/mL, partner 0.375 µg/mL | 0.736
S. aureus Newman, first compound 0.078 µg/mL, partner 0.75 µg/mL | 0.828
S. aureus Newman, first compound 0.078 µg/mL, partner 1.5 µg/mL | 0.785
S. aureus Newman, first compound 0.156 µg/mL, partner 0.375 µg/mL | 0.601
S. aureus Newman, first compound 0.156 µg/mL, partner 0.75 µg/mL | 0.604
S. aureus Newman, first compound 0.156 µg/mL, partner 1.5 µg/mL | 0.629
S. aureus Newman, first compound 0.312 µg/mL, partner 0.375 µg/mL | 0.345
S. aureus Newman, first compound 0.312 µg/mL, partner 0.75 µg/mL | 0.326
S. aureus Newman, first compound 0.312 µg/mL, partner 1.5 µg/mL | 0.305
S. aureus Newman, first compound 0.625 µg/mL, partner 0.375 µg/mL | 0.186
S. aureus Newman, first compound 0.625 µg/mL, partner 0.75 µg/mL | 0.121
S. aureus Newman, first compound 0.625 µg/mL, partner 1.5 µg/mL | 0.0813
S. aureus Newman, first compound 1.25 µg/mL, partner 0.375 µg/mL | 0.0332
S. aureus Newman, first compound 1.25 µg/mL, partner 0.75 µg/mL | 0.0383
S. aureus Newman, first compound 1.25 µg/mL, partner 1.5 µg/mL | 0.0209
S. aureus Newman, first compound 2.5 µg/mL, partner 0.375 µg/mL | 0.0595
S. aureus Newman, first compound 2.5 µg/mL, partner 0.75 µg/mL | 0.0506
S. aureus Newman, first compound 2.5 µg/mL, partner 1.5 µg/mL | 0.0484

fitness, B. subtilis 168, one replicate
Conditions | first compound 0.00775 µg/mL | first compound 0.0155 µg/mL | first compound 0.031 µg/mL | first compound 0.0625 µg/mL | first compound 0.125 µg/mL | first compound 0.25 µg/mL
partner 0.125 µg/mL | 0.876 | 0.666 | 0.554 | 0.498 | 0.353 | 0.296
partner 0.25 µg/mL | 0.888 | 0.756 | 0.561 | 0.524 | 0.401 | 0.31
partner 0.5 µg/mL | 0.802 | 0.733 | 0.566 | 0.477 | 0.363 | 0.267
